Drawing on patent US20240409536A1, “COMPOUNDS AND METHODS FOR MODULATING SPLICING” (REMIX THERAPEUTICS INC., priority 2021, published 2024), this text covers IC50 and AC50 for 9 compounds.

pIC50: −log10 of the molar value.

For assay [1], the system named is HTT mRNA. The assay is described as follows: Splicing RT-qPCR assay, HTT canonical (CJ) and alternative (AJ) junction mRNA. It is filed as cell-based. The settings on record: Homo sapiens, A673 or K562 cells, 24 hours; for pIC50: decrease in canonical junction mRNA; for AC50: increase in alternative junction mRNA. An outline of the steps: (§1)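 Housekeeping-normalized RT-qPCR of canonical and alternative junctions in lysates of A673 or K562 cells exposed 24 h to compound (11 points, 3-fold steps, max 10 uM).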

For assay [2], the system named is MYB mRNA. The assay is described as follows: Splicing RT-qPCR assay, MYB canonical (CJ) and alternative (AJ) junction mRNA. To be noted: Homo sapiens, A673 or K562 cells, 24 hours; for pIC50: decrease in canonical junction mRNA; for AC50: increase in alternative junction mRNA. The format is cell-based. A digest of the protocol:
as §1
For orientation: Quantitative PCR measures a nucleic acid by following its amplification.

The test system of assay [3] is HTT mRNA. The experiment in a line: Gene panel canonical junction qPCR assay, HTT CJ mRNA decrease. To be noted: Homo sapiens, canonical junction qPCR, read-out: HTT IC50 (decrease in CJ mRNA levels). The format is cell-based, human. An outline of the steps: (§2)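 A673 or K562 cells were treated with compound, and lysates underwent cDNA synthesis and qPCR with a CY5 5′-nuclease probe or primer spanning the canonical exon junction. ΔCt versus GAPDH, GUSB or PPIA was normalized to DMSO (2^(−ΔΔCt)), converted to percentage response and fitted four-parameter logistic for IC50.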

Assay [4] relates to Target C mRNA. The experiment in a line: Gene panel canonical junction qPCR assay, Target C CJ mRNA decrease. The settings on record: Homo sapiens, canonical junction qPCR, read-out: Target C IC50 (decrease in CJ mRNA levels). It is filed as cell-based. A digest of the protocol:
as §2

A word on the pIC50: it is the IC50 on a negative log10 scale, so that one unit is a factor of ten. Broadly, the AC50 is the concentration giving half of the maximal activity seen. Low readings indicate activity at low concentration, high ones activity only at high concentration. In the case of `CNC1CCN(c2ccc(C(=O)Nc3cc(F)c4nc(C)cn4c3)c3ncc(OC)nc23)C1` (stereo in doubt) [Compound 227, (R)—N-(8-fluoro-2-methylimidazo[1,2-a]pyridin-6-yl)-2-methoxy-8-(3-(methylamino)pyrrolidin-1-yl)quinoxaline-5-carboxamide 2,2,2-trifluoroacetate], the pIC50 in assay [1] is less than 5.00; in assay [2], 5.00 to 6.00; in assay [3], less than 5.00; in assay [4] it was less than 5.00. For the same compound, the AC50 in assay [1] was more than 10000 nM; in assay [2], 1000 to 10000 nM.
Consider `Cc1cn2cc(NC(=O)c3ccc(N4CCC(NC(C)(C)C)C4)c4ccnnc34)cc(F)c2n1` (centres unmarked) [Compound 109], for which the pIC50 in assay [1], in assay [2] and in assay [3] was 5.00 to 6.00 in each case. Further, the AC50 in assay [1] and in assay [2] was 1000 to 10000 nM each time.
In assay [2], `Cc1cnc2c(C(=O)Nc3cc(F)c4nc(C)cn4c3)ccc(N3C[C@@H](C)N[C@@H](C)C3)c2n1` [Compound 217, 8-((3R,5S)-3,5-dimethylpiperazin-1-yl)-N-{8-fluoro-2-methylimidazo[1,2-a]pyridin-6-yl}-2-methylquinoxaline-5-carboxamide] gave a pIC50 of more than 7.00 and an AC50 of less than 100 nM. In assay [4], the pIC50 was 6.00 to 7.00.
Take `CCNC1CCN(c2ccc(C(=O)Nc3cc(F)c4nc(C)cn4c3)c3nc(C)ccc23)CC1` [Compound 228, 5-[4-(ethylamino)piperidin-1-yl]-N-{8-fluoro-2-methylimidazo[1,2-a]pyridin-6-yl}-2-methylquinoline-8-carboxamide]: the pIC50 was 6.00 to 7.00 in assay [1], more than 7.00 in assay [2], 6.00 to 7.00 in assay [3] and 6.00 to 7.00 in assay [4]. The AC50 in assay [1] and in assay [2] was 100 to 1000 nM each time.
On to `COCCOc1ccc2c(N3CCC(N(C)C)CC3)ccc(C(=O)Nc3cc(F)c4nc(C)cn4c3)c2n1` [Compound 229, 5-[4-(dimethylamino)piperidin-1-yl]-N-{8-fluoro-2-methylimidazo[1,2-a]pyridin-6-yl}-2-(2-methoxyethoxy)quinoline-8-carboxamide], for which the pIC50 in assay [1] is less than 5.00; in assay [2] it was 6.00 to 7.00; in assay [3], less than 5.00; in assay [4], less than 5.00. Further, the figures for the AC50 in assay [1] and in assay [2] were more than 10000 nM and less than 100 nM, respectively.
Consider `Cc1cn2cc(NCc3ccc(N4CCNCC4)c4ccnnc34)cc(F)c2n1` [Compound 230, 8-fluoro-2-methyl-N-{[5-(piperazin-1-yl)cinnolin-8-yl]methyl}imidazo[1,2-a]pyridin-6-amine], for which the pIC50 was 5.00 to 6.00 in assay [1], less than 5.00 in assay [2], 5.00 to 6.00 in assay [3] and less than 5.00 in assay [4]. Moreover, the AC50 in assay [1] and in assay [2] was more than 10000 nM in each case.
As to `CNC1CCN(c2ccc(C(=O)Nc3cc(F)c4nc(C)cn4c3)c3nnccc23)C1` (centres unmarked) [Compound 231, N-{8-fluoro-2-methylimidazo[1,2-a]pyridin-6-yl}-5-[3-(methylamino)pyrrolidin-1-yl] cinnoline-8-carboxamide], the negative logarithm of the IC50 (pIC50) in assay [1] was 5.00 to 6.00; in assay [2] it was more than 7.00; in assay [3] it was 5.00 to 6.00; in assay [4], less than 5.00. Further, the AC50 in assay [1] was 1000 to 10000 nM; in assay [2], less than 100 nM.
Consider `COCCOc1ccc2c(N3C[C@@H](C)N[C@@H](C)C3)ccc(C(=O)Nc3cc(F)c4nc(C)cn4c3)c2n1` [Compound 232, 5-[(3R,5S)-3,5-dimethylpiperazin-1-yl]-N-{8-fluoro-2-methylimidazo[1,2-a]pyridin-6-yl}-2-(2-methoxyethoxy)quinoline-8-carboxamide], for which the pIC50 in assay [1] was 5.00 to 6.00; in assay [2], 6.00 to 7.00; in assay [3], 5.00 to 6.00; in assay [4], 5.00 to 6.00. Besides, the AC50 in assay [1] fell in the range of 1000 to 10000 nM; in assay [2], 100 to 1000 nM.
For the compound `CCNC1CCN(c2ccc(C(=O)Nc3cc(F)c4nc(C)cn4c3)c3nc(OCCOC)ccc23)CC1` [Compound 233, 5-[4-(ethylamino)piperidin-1-yl]-N-{8-fluoro-2-methylimidazo[1,2-a]pyridin-6-yl}-2-(2-methoxyethoxy)quinoline-8-carboxamide], the pIC50 in assay [1] is 5.00 to 6.00; in assay [2], 6.00 to 7.00; in assay [3], 5.00 to 6.00; in assay [4], 5.00 to 6.00. In addition, the AC50 in assay [1] is 1000 to 10000 nM; in assay [2], 100 to 1000 nM.
